Data: patent publication US20190374526A1, “Substituted Heterocyclic Compounds as Inhibitors of PRDM9” (Merck Sharp & Dohme Corp., priority 2018, published 2019)

biological target: T1, hPRDM9 (amino acids 195-385) (Homo sapiens, UniProt Q9NQV7); experiment: PRDM9 biochemical assay (radiometric, 3[H] methyl transfer from SAM to biotinylated histone H3 peptide); settings: 1 nM hPRDM9, 1 μM biotinylated H3(1-25)K4 peptide, 5 μM 3[H]-SAM, 55 μM un-labeled SAM, 25° C., 30 minutes
T1 construct: 1.25 nM hPRDM9 (amino acids 195-385)
T1 sequence (Q9NQV7 195-385): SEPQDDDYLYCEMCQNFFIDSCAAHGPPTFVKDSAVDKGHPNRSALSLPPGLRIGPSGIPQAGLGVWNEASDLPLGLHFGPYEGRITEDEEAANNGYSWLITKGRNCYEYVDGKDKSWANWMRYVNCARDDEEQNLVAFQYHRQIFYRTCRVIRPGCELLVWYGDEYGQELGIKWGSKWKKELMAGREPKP
Method: The PRDM9 biochemical assay was carried out using a radiometric format involving the transfer of ^3[H] methyl group from S-adenosyl methionine (SAM) to a biotinylated histone H3 peptide (H3(1-25)K4). 10 mM compounds in DMSO were diluted 20 fold in assay buffer (10 mM Tris-HCl, pH 8.5, 10 mM DTT, and 0.01% Triton X-100) before adding […] to a well in a 384 well polypropylene microplate plate and adding 8 μl of reaction mix (1.25 nM hPRDM9 (amino acids 195-385), 1.25 μM biotinylated H3 peptide in assay buffer). The ^3[H]-SAM and cold SAM stock solutions were diluted to 50 μM and 550 μM respectively in assay buffer before aliquoting 1 μl of 50 μM ^3[H]-SAM, 550 μM SAM into each well to initiate the reaction. The assay was performed at 25° C. at the final concentrations of 1 nM hPRDM9, 1 μM peptide, 5 μM ^3[H]-SAM, and 55 μM un-labeled SAM in assay buffer. The reaction was quenched after 30 minutes by adding 25 μl 7.5 M Guanidine-HCl. Quenched reactions were transferred to streptavidin coated Flashplates, diluted two fold in assay buffer, incubated for 1 hour, and read on a Perkin Elmer Topcount instrument. Compound activity was expressed relative to activity of 0.5% (v/v) DMSO treated samples and fit to a four parameter logistic equation to determine IC50 values.

SMILES | IC50 [µM]
Cc1cc(N2CCC3C(Nc4nc(-c5cc(Cl)cc(Cl)c5)no4)CCC32)ccn1 (mixture of isomers) [Compound 27] | 36.4
Cc1cc(N[C@@H]2[C@@H](O)CN(c3nc(-c4cc(Cl)cc(Cl)c4)no3)[C@H]2C)ccn1 (racemic) [Compound 29] | 13.3
Cc1cc(N2C[C@H]3CCN(c4nc(-c5cc(Cl)cc(Cl)c5)no4)C[C@H]3C2)ccn1 (racemic) [Compound 36] | 27.8
Cc1cc(N[C@H]2CC[C@H](Nc3nc(-c4cc(Cl)cc(Cl)c4)no3)C2)ccn1 (racemic) [Compound 50] | 16.4
Cc1cc(N2CCC(C3CCCN(c4nc(-c5cc(Cl)cc(Cl)c5)no4)C3)CC2)ccn1 (stereo not drawn) [Compound 6] | 11.3
Cc1cc(NC(C)C2CCCN(c3nc(-c4cc(Cl)cc(Cl)c4)no3)C2)ccn1 (stereo not drawn) [Compound 11] | 19.7
Cc1cc(NC[C@H]2CCCN2c2nc(-c3cc(Cl)cc(Cl)c3)no2)ccn1 [Compound 12] | 41.5
Cc1cc(N2CCC3(CC2)CCN(c2nc(-c4cc(Cl)cc(Cl)c4)no2)CC3)ccn1 [Compound 15] | 31.6
Cc1cc(NCCCN(C)c2nc(-c3cc(Cl)cc(Cl)c3)no2)ccn1 [Compound 16] | 11.5
Cc1cc(N2CCC3(CCN(c4nc(-c5cc(Cl)cc(Cl)c5)no4)CC3)C2)ccn1 [Compound 20] | 7.79
Cc1cc(N2CCC(CCNc3nc(-c4cc(Cl)cc(Cl)c4)no3)CC2)ccn1 [Compound 22] | 18.6
CCC1(CNc2ccnc(C)c2)CCN(c2nc(-c3cc(Cl)cc(Cl)c3)no2)C1 (stereo not drawn) [Compound 23] | 17.8
Cc1cc(NC2CCCC(Nc3nc(-c4cc(Cl)cc(Cl)c4)no3)C2)ccn1 (stereo not drawn) [Compound 30] | 28.2
Cc1cc(NCC2(O)CCN(c3nc(-c4cc(Cl)cc(Cl)c4)no3)C2)ccn1 (stereo not drawn) [Compound 37] | 15.5
Cc1cc(N2CCC3CN(c4nc(-c5cc(Cl)cc(Cl)c5)no4)CC32)ccn1 (stereo not drawn) [Compound 39] | 12.3
Cc1cc(N2CCCC(Nc3nc(-c4cc(Cl)cc(Cl)c4)no3)CC2)ccn1 (stereo not drawn) [Compound 42] | 35.8
Cc1cc(NCC(F)CNc2nc(-c3cc(Cl)cc(Cl)c3)no2)ccn1 (stereo not drawn) [Compound 43] | 13.3
Cc1cc(NCC2CN(c3nc(-c4cc(Cl)cc(Cl)c4)no3)C2)ccn1 [Compound 49] | 40.2
Cc1cc(N2CCC(N(c3nc(-c4cc(Cl)cc(Cl)c4)no3)C3CC3)CC2)ccn1 [Compound 51] | 7.29
Cc1cc(N2CC(CCNc3nc(-c4cc(Cl)cc(Cl)c4)no3)C2)ccn1 [Compound 52] | 29.4
Cc1cc(NC2CCC(Nc3nc(-c4cc(Cl)cc(Cl)c4)no3)CC2)ccn1 (stereo not drawn) [Compound 54] | 26.1
Cc1cc(N2CCC(O)(CNc3nc(-c4cc(Cl)cc(Cl)c4)no3)C2)ccn1 (stereo not drawn) [Compound 56] | 28
Cc1cc(N(C)CCCCNc2nc(-c3cc(Cl)cc(Cl)c3)no2)ccn1 [Compound 58] | 24
Cc1cc(N2CCC(C3CCN(c4nc(-c5cc(Cl)cc(Cl)c5)no4)CC3)CC2)ccn1 [Compound 65] | 6.2
Cc1cc(NC2CCC(O)(CNc3nc(-c4cc(Cl)cc(Cl)c4)no3)CC2)ccn1 (stereo not drawn) [Compound 69] | 7.04
Cc1cc(N2CC3CCC(Nc4nc(-c5cc(Cl)cc(Cl)c5)no4)CC3C2)ccn1 (stereo not drawn) [Compound 70] | 6.9
Cc1cc(N2CCC3CN(c4nc(-c5cc(Cl)cc(Cl)c5)no4)CCC32)ccn1 (stereo not drawn) [Compound 71] | 27.7
Cc1cc(N2CCN(c3nc(-c4cc(Cl)cc(Cl)c4)no3)CC2)ccn1 [Compound 79] | 19.1
Cc1cc(NC[C@H]2CCN(c3nc(-c4cc(Cl)cc(Cl)c4)no3)C2)ccn1 [Compound 81] | 13.3

Compounds with a lower IC50, results first:

IC50 [µM] | SMILES
5.16 | Cc1cc(N2CC[C@@H]3CN(c4nc(-c5cc(Cl)cc(Cl)c5)no4)C[C@@H]3C2)ccn1 [Compound 1, 3-(3,5-dichlorophenyl)-5-((3aS,7aS)-5-(2-methylpyridin-4-yl)hexahydro-1H-pyrrolo[3,4-c]pyridin-2(3H)-yl)-1,2,4-oxadiazole]
0.36 | Cc1cc(N2CCC3(CCN(c4nc(-c5cc(Cl)cc(Cl)c5)no4)C3)C2)ccn1 (stereo not drawn) [Compound 4]
4.85 | Cc1cc(NC2CCCC(Nc3nc(-c4cc(Cl)cc(Cl)c4)no3)CC2)ccn1 (stereo not drawn) [Compound 7]
0.804 | Cc1cc(N2CCC(F)(CNc3nc(-c4cc(Cl)cc(Cl)c4)no3)CC2)ccn1 [Compound 8]
5.34 | Cc1cc(N2CC3CC(Nc4nc(-c5cc(Cl)cc(Cl)c5)no4)CC3C2)ccn1 (stereo not drawn) [Compound 24]
0.0225 | Cc1cc(N2CCC3(CCC(=O)N(c4nc(-c5cc(Cl)cc(Cl)c5)no4)C3)CC2)ccn1 [Compound 28]
2.21 | CCC1(CNc2nc(-c3cc(Cl)cc(Cl)c3)no2)CCN(c2ccnc(C)c2)CC1 [Compound 32]
1.52 | Cc1cc(N2CCC3(CCCC3Nc3nc(-c4cc(Cl)cc(Cl)c4)no3)CC2)ccn1 (stereo not drawn) [Compound 33]
2.2 | Cc1cc(N2CCC3(CC2)CC3Nc2nc(-c3cc(Cl)cc(Cl)c3)no2)ccn1 (stereo not drawn) [Compound 34]
0.16 | Cc1cc(N2CCC(CN(C)c3nc(-c4cc(Cl)cc(Cl)c4)no3)CC2)ccn1 [Compound 38]
0.0803 | Cc1cc(N2CCC3(CC2)CN(c2nc(-c4cc(Cl)cc(Cl)c4)no2)CCO3)ccn1 [Compound 40]
3.92 | Cc1cc(N2CCC3(CCCN3c3nc(-c4cc(Cl)cc(Cl)c4)no3)C2)ccn1 (stereo not drawn) [Compound 41]
0.5 | Cc1cc(N2CC(C3CCCCN3c3nc(-c4cc(Cl)cc(Cl)c4)no3)C2)ccn1 (stereo not drawn) [Compound 44]
0.34 | Cc1cc(N2CC3CN(c4nc(-c5cc(Cl)cc(Cl)c5)no4)CC3C2)ccn1 (stereo not drawn) [Compound 45]
3.58 | Cc1cc(NCC2(C)CCN(c3nc(-c4cc(Cl)cc(Cl)c4)no3)CC2)ccn1 [Compound 64]
0.47 | Cc1cc(NC2CCC3CN(c4nc(-c5cc(Cl)cc(Cl)c5)no4)CC3C2)ccn1 (stereo not drawn) [Compound 66]
4.44 | Cc1cc(N2CCC(CNc3nc(-c4cc(Cl)cc(Cl)c4)no3)(c3ccccc3)CC2)ccn1 [Compound 67]

IC50 [µM] | SMILES
2.8 | Cc1cc(N2CC3CCCN(c4nc(-c5cc(Cl)cc(Cl)c5)no4)C3C2)ccn1 (stereo not drawn) [Compound 68]
1.13 | Cc1cc(NC2CCCN(c3nc(-c4cc(Cl)cc(Cl)c4)no3)CC2)ccn1 (stereo not drawn) [Compound 74]
2.63 | Cc1cc(N2CCC(C3CCN(c4nc(-c5cc(Cl)cc(Cl)c5)no4)C3)CC2)ccn1 (stereo not drawn) [Compound 77]
2.83 | Cc1cc(N2CCC3(CC2)CC3Nc2nc(-c3cc(Cl)cc(Cl)c3)no2)ccn1 (stereo not drawn) [Compound 80]
0.08 | COc1cc(OC)cc(-c2nc(N3CCCC4(CCN(c5ccnc(C)c5)CC4)C3)no2)c1 [Compound 85, 5-(3,5-dimethoxyphenyl)-3-(9-(2-methylpyridin-4-yl)-2,9-diazaspiro[5.5]undecan-2-yl)-1,2,4-oxadiazole]
0.28 | COc1cc(Cl)cc(-c2nc(N3CCCC4(CCN(c5ccnc(C)c5)CC4)C3)no2)c1 [Compound 86]
0.47 | COc1cccc(-c2nc(N3CCCC4(CCN(c5ccnc(C)c5)CC4)C3)no2)c1 [Compound 87]
0.06 | Cc1cc(N2CCC3(CCCN(c4noc(-c5cccc(Cl)c5)n4)C3)CC2)ccn1 [Compound 88]
0.08 | CCN1CCN(c2noc(-c3cc(OC)cc(OC)c3)n2)CC12CCN(c1ccnc(C)c1)CC2 [Compound 89]
0.118 | COc1cc(OC)cc(-c2nc(N3CCN(C)C4(CCN(c5ccnc(C)c5)CC4)C3)no2)c1 [Compound 90]
0.15 | COc1cc(OC(F)(F)F)cc(-c2nc(N3CCCC4(CCN(c5ccnc(C)c5)CC4)C3)no2)c1 [Compound 91, 5-(3-methoxy-5-(trifluoromethoxy)phenyl)-3-(9-(2-methylpyridin-4-yl)-2,9-diazaspiro[5.5]undecan-2-yl)-1,2,4-oxadiazole]
0.069 | Cc1cc(N2CCC3(CCCN(c4noc(-c5cc(OC(F)F)cc(OC(F)F)c5)n4)C3)CC2)ccn1 [Compound 92]
0.06 | COc1cc(OC)cc(-c2noc(N3CCN(CC(F)(F)F)C4(CCN(c5ccnc(C)c5)CC4)C3)n2)c1 [Compound 93, 3-(3,5-dimethoxyphenyl)-5-(9-(2-methylpyridin-4-yl)-1-(2,2,2-trifluoroethyl)-1,4,9-triazaspiro[5.5]undecan-4-yl)-1,2,4-oxadiazole]
0.109 | COCCN1CCN(c2nc(-c3cc(OC)cc(OC)c3)no2)CC12CCN(c1ccnc(C)c1)CC2 [Compound 94]
0.044 | Cc1cc(N2CCC3(CC2)CN(c2nc(-c4cc(OC5CC5)cc(OC5CC5)c4)no2)CCN3C)ccn1 [Compound 95]
0.103 | CCOc1cc(OCC)cc(-c2noc(N3CCN(C)C4(CCN(c5ccnc(C)c5)CC4)C3)n2)c1 [Compound 96]
1.37 | Cc1cc(N2CCC3(CC2)CN(c2nc(-c4cc(OC(C)C)cc(OC(C)C)c4)no2)CCN3C)ccn1 [Compound 97]
